Test results as given in the supplement of paper PMC6723410.

Test system: GUMC-403
Test: viability at highest tested concentration (max response) relative to DMSO (% of DMSO control); higher = less cytotoxic
Conditions: library / dose series: MIPE library, 11-point 1:3 dilution; top concentration 46.1 µM; 48 h
In short: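 Each figure stands for viability at the highest tested concentration compared with vehicle control. It was measured by CellTiter-Glo luminescence on a ViewLux after 48 h of exposure to 23 nL of pinned compound, with vehicle wells taken as 100% and empty wells as 0%. The cells were patient-derived GUMC-403 papilloma cells grown by conditional reprogramming, plated at 700/well in 5 μL F + Y medium in 1536-well plates.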

SMILES	viability
CC(=O)N[C@H]1[C@H](O[C@@H]2c3ccc(c(Cl)c3)Oc3cc4cc(c3O[C@@H]3O[C@H](CO)[C@@H](O)[C@H](O)[C@H]3NC(=O)CCCCCCCC(C)C)Oc3ccc(cc3Cl)C[C@H]3NC(=O)[C@H](N)c5ccc(O)c(c5)Oc5cc(O)cc(c5)[C@H](NC3=O)C(=O)N[C@H]4C(=O)N[C@H]3C(=O)N[C@@H]2C(=O)N[C@@H](C(=O)O)c2cc(O)cc(O[C@H]4O[C@H](CO)[C@@H](O)[C@H](O)[C@@H]4O)c2-c2cc3ccc2O)O[C@H](CO)[C@@H](O)[C@@H]1O	121
Cc1ncc([N+](=O)[O-])n1CCO	106
CC[C@H]1OC(=O)[C@H](C)[C@@H](O[C@H]2C[C@@](C)(OC)[C@@H](O)[C@H](C)O2)[C@H](C)[C@@H](O[C@@H]2O[C@H](C)C[C@H](N(C)C)[C@H]2O)[C@](C)(O)C[C@@H](C)/C(=N\OCOCCOC)[C@H](C)[C@@H](O)[C@]1(C)O	83.3
O=C(N[C@H]1CN2CCC1CC2)c1ccc(Cl)cc1	121
COc1cc(N2CCC(N3CCN(C)CC3)CC2)ccc1Nc1ncnc(Nc2ccccc2[S+](=O)([O-])C(C)C)n1	49.4
COC(=O)C/1=C/O[C@@H](O)[C@H]\2[C@@H]1C\C=C2CO	94.5
COC(=O)C1=C(C)NC(C)=C(C(=O)OCCN2CCN(C(c3ccccc3)c3ccccc3)CC2)C1c1cccc([N+](=O)[O-])c1.Cl.Cl (centres undefined)	86.5
CCCCCOC(=O)NC\1=N\C(=O)N(\C=C1F)[C@@H]2O[C@H](C)[C@@H](O)[C@H]2O	83.9
N#C/C(C(=O)c1ccc(Cl)cc1Cl)=C1/NC(=O)c2ccc(Cl)cc2N1	100
CC(C)=CCC/C(C)=C/CC/C(C)=C/CC/C(C)=C/CC/C(C)=C/CC/C(C)=C/CC/C(C)=C/CC/C(C)=C/CC/C(C)=C/CO	104
C[C@]12CCC3c4ccc(O)cc4CCC3C1CCC2=O (some centres undefined)	94.8
CCOC(=O)C(C)OC1=CC=CC2=C1\C=C/N(CC(=O)NC3=CC=C4OCCOC4=C3)C2=O (centres undefined)	105
N[S+](=O)([O-])c1ccc(Nc2nc(OCC3CCCCC3)c3[nH]cnc3n2)cc1	46.9
c1cc(N[C@@H]2CCNC2)nc(-c2cnc3ccc(-c4cn[nH]c4)cn23)c1	122
CC(C)c1cc(C(C)C)c(CC(=O)N[S+](=O)([O-])Oc2c(C(C)C)cccc2C(C)C)c(C(C)C)c1	99.7
CCCCCCCCCCCCCCCC(=O)OC[C@@H](NC(=O)C(Cl)Cl)[C@H](O)c1ccc([N+](=O)[O-])cc1	130
C=CC(=O)Nc1ccc2ncnc(Nc3ccc(OCc4cccc(F)c4)c(Cl)c3)c2c1	26.3
O=C(Nc1ccncc1)C(=O)c1cn(Cc2ccc(Cl)cc2)c2ccccc12	112
COc1cc(N[S+](=O)([O-])c2ccc(N)cc2)nc(OC)n1	142
COC(=O)[C@@H]1CC2=CC(=O)CC[C@]2(C)[C@@]23O[C@@H]2C[C@@]2(C)[C@@H](CC[C@@]24CCC(=O)O4)[C@H]13	128
COC1CCC(C(=O)c2ccc3nc4c(cc3c2)CCCO4)CC1 (centres undefined)	89.8
CC(C)c1ccccc1Cc1cc(C(=O)Nc2ccc([S+](=O)([O-])c3ccccc3C(C)(C)C)cc2)c(O)c(O)c1O	56.4
CC(C)(C)NC(=O)Nc1cccc(Nc2ncc(F)c(NC(C)(C)CO)n2)c1	121
CC(C)(C)C(=O)Oc1ccc([S+](=O)([O-])Nc2ccccc2C(=O)NCC(=O)O)cc1	113
CCC[S+](=O)([O-])Nc1ccc(F)c(C(=O)c2c[nH]c3ncc(Cl)cc23)c1F	79.1
CN1CCC(CC1)COC2=CN=C(N=C2)C3=CC(=CC=C3)CN4/N=C(\C=C/C4=O)C5=CC(=CC=C5)C#N	96.2
CC(O)C1C2C(C)\C(=C(/N2C1=O)C(O)=O)SC3CNC(C3)C(=O)N(C)C (centres undefined)	115

SMILES	viability
N\C1=N\C2=C(N=C[N]2COC(CO)CO)C(=O)N1	43.9
CN1[C@@H]2CCC[C@H]1C[C@@H](NC(=O)c1nn(C)c3ccccc13)C2.Cl	105
Clc1ccccc1C(c1ccccc1)(c1ccccc1)n1ccnc1	99.5
COc1ccc(C(CN(C)C)C2(O)CCCCC2)cc1 (centres undefined)	100
CO[C@@H]1[C@@H](OC(N)=O)[C@@H](O)[C@H](OC2=CC=C3\C(=C(NC(=O)C4=CC=C([O-])C(=C4)CC=C(C)C)/C(=O)OC3=C2C)O)OC1(C)C	108
Cc1ccc([C@@H]2O[C@H](CO)[C@@H](O)[C@H](O)[C@H]2O)cc1Cc1ccc(-c2ccc(F)cc2)s1	108
CC(C)(O)[C@H]1CC[C@@](C)([C@H]2[C@@H](O)C[C@@]3(C)[C@@H]4C[C@H](O[C@@H]5O[C@H](CO)[C@@H](O)[C@H](O)[C@H]5O)[C@H]5C(C)(C)[C@@H](O[C@@H]6OC[C@@H](O)[C@H](O)[C@H]6O)CC[C@@]56C[C@@]46CC[C@]23C)O1	119
CC(C)C[C@H](NC(=O)c1cc2ccccc2s1)C(=O)N1CCN(C(=O)[C@H](CO)N[S+](=O)([O-])c2ccc(Cl)cc2Cl)CC1	109
C[C@@H](CN1CC(=O)NC(=O)C1)N1CC(=O)NC(=O)C1	118
O=C(O)CCCc1ccc(N(CCCl)CCCl)cc1	111
N#C/N=C(\NCCCCCCOc1ccc(Cl)cc1)Nc1ccncc1	115
CN1\C(=C(O)/C2=C(C=C(Cl)S2)[S+]1([O-])=O)C(=O)NC3=NC=CC=C3	67.8
COc1cc2c(Nc3ccc(Br)cc3F)ncnc2cc1OCC1CCN(C)CC1	52.2
Cc1cccc(C)c1NC(=O)CN1CCCC1=O	106
CN1CCN(CCOc2cc(OC3CCOCC3)c3c(Nc4c(Cl)ccc5c4OCO5)ncnc3c2)CC1	75.9
C[C@H]1O[C@H](O[C@H]2[C@H](O)[C@@H](O)[C@H](O[C@@H]2CO)O[C@H]3[C@H](O)[C@@H](O)C(O)O[C@@H]3CO)[C@H](O)[C@@H](O)[C@@H]1N[C@H]4\C=C(CO)/[C@@H](O)[C@H](O)[C@H]4O (some centres undefined)	135
COc1cc(F)c(C(C)C)cc1-c1ccc(C(F)(F)F)cc1CN1C(=O)O[C@H](c2cc(C(F)(F)F)cc(C(F)(F)F)c2)[C@@H]1C	100
Cc1cccc(Nc2nc(-c3ccncc3)cs2)c1	109
O=C1Nc2ccccc2/C1=C1\Nc2ccccc2C1=O	104
NC/1=N/C(=O)N/C=C1F	104
CN(C)C(=N)NC(=N)N	122
C\C1=C\C(=O)OC2=C1C=CC(=C2)O	110
COc1ccc2c(c1)CN(C)CC2c1ccc(Cl)c(Cl)c1 (centres undefined)	129
Nc1ccccc1NC(=O)c1ccc(CNc2nccc(-c3cccnc3)n2)cc1	85.9
Cc1cnc(Nc2ccc(OCCN3CCCC3)cc2)nc1Nc1cccc([S+](=O)([O-])NC(C)(C)C)c1	141
C[C@@H]1C[C@H]2[C@@H]3\C=C(C)/C4=C/C5=C(C[C@]4(C)[C@H]3[C@@H](O)C[C@]2(C)[C@@]1(O)C(=O)COC(C)=O)C=N[N]5C6=CC=CC=C6	107
CC(C)OC(=O)CCC/C=C\C[C@@H]1[C@@H](/C=C/[C@@H](O)COc2cccc(C(F)(F)F)c2)[C@H](O)C[C@@H]1O	118
